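The compound was tested at five concentrations on cells cultured in 96-well plates, with a 48-hour exposure period. Abbreviation: GI50, concentration required for 50% inhibition of growth.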 Calls of active or inactive are those of the source. No stated cut-off is given here; in the data, active = GI50 up to about 1.1 µM and inactive = higher.

Some test systems named below: EKVX; MCF7; MOLT-4; RPMI-8226; A549; HCC 2998; SF-539; T47D; NCI/ADR-RES; BT-549; 786-0; Hs-578T; UO-31; HCT-116; IGROV-1; OVCAR-4; PC-3; NCI-H522; HCT-15; LOX IMVI.
Holding throughout (test): NCI anticancer screen, dose series, 48 h

With `COC(=O)C1Cc2cc3c(cc2C1=O)CCC3` (stereo not given), the GI50 was > 100 µM (inactive) in the assay with EKVX; > 100 µM (inactive) in the assay with MCF7; 68.7 µM (inactive) in the assay on MOLT-4; > 100 µM (inactive) in the assay with RPMI-8226; > 100 µM (inactive) with A549; > 100 µM (inactive) with HCC 2998. In addition, the GI50 in the assay on SF-539, in the assay with T47D, in the assay on NCI/ADR-RES, with BT-549, in the assay on 786-0 and in the assay with Hs-578T was > 100 µM (inactive) in each case. For the same molecule, the GI50 with UO-31 is > 100 µM (inactive); with HCT-116, > 100 µM (inactive); in the assay with IGROV-1 it was > 100 µM (inactive); in the assay with OVCAR-4 it was 42.1 µM (inactive); in the assay with PC-3 it was > 100 µM (inactive); with NCI-H522, > 100 µM (inactive). Further, the GI50 in the assay on HCT-15 is over 100 µM; with LOX IMVI, > 100 µM (inactive).
Regarding `CN(C)CCn1c(=O)c2ccc3c4c(nn3CCN(C)C)c3cc(N)ccc3n(c1=O)c24`, the GI50 in the assay on EKVX was 0.0507 µM (active); with MCF7, < 0.0207 µM (active); in the assay with MOLT-4 it was < 0.011 µM (active); in the assay with RPMI-8226, < 0.01 µM (active); with A549, < 0.01 µM (active); in the assay with HCC 2998, < 0.01 µM (active). Moreover, the GI50 in the assay with SF-539 is 0.0291 µM (active); in the assay with T47D, 0.0312 µM (active); in the assay on NCI/ADR-RES, 0.0349 µM (active); in the assay on BT-549, 0.127 µM (active); in the assay with 786-0, < 0.01 µM (active); with Hs-578T it was 0.091 µM (active). Moreover, the GI50 was < 0.0132 µM (active) with UO-31; < 0.0145 µM (active) in the assay on HCT-116; < 0.015 µM (active) in the assay with IGROV-1; 0.0165 µM (active) in the assay on OVCAR-4; < 0.0153 µM (active) in the assay with PC-3; 0.02 µM (active) with NCI-H522. In addition, the GI50 with HCT-15 was under 0.0169 µM; in the assay with LOX IMVI it was 0.0154 µM (active).
Consider `CC(=O)N[C@@H](Cc1ccc(O)cn1)C(=O)NC1CCCCC1`, for which the GI50 in the assay on EKVX, in the assay on MCF7, with MOLT-4, in the assay on RPMI-8226, with A549 and in the assay with HCC 2998 was > 100 µM (inactive) throughout. Further, the GI50 with SF-539, with T47D, with NCI/ADR-RES, in the assay on BT-549, in the assay with 786-0 and in the assay with Hs-578T was > 100 µM (inactive) in each case. The GI50 is > 100 µM (inactive) in the assay on UO-31; > 100 µM (inactive) in the assay on HCT-116; > 100 µM (inactive) in the assay with IGROV-1; > 100 µM (inactive) in the assay with OVCAR-4; > 100 µM (inactive) with PC-3; 30.3 µM (inactive) in the assay on NCI-H522. The values for the GI50 in the assay with HCT-15 and with LOX IMVI were over 100 µM and > 100 µM (inactive), respectively.
In the case of `COC1CC(OC2C(C)OC(OC3C(C)OC(OC4C(O)CC(O[C@H]5CC[C@@]6(C)C(=CC[C@]7(O)[C@@H]6C[C@@H](OC(=O)/C=C/c6ccccc6)[C@@]6(C)[C@]7(O)CC[C@@]6(O)C(C)=O)C5)OC4C)CC3OC)CC2OC)OC(C)C1O` (stereo not given in full), the GI50 in the assay with EKVX, in the assay on MCF7, in the assay with MOLT-4, in the assay on RPMI-8226, with A549 and with HCC 2998 was > 6.25 µM (inactive) throughout. The GI50 in the assay with SF-539, in the assay on T47D, with NCI/ADR-RES, in the assay with BT-549, in the assay on 786-0 and in the assay on Hs-578T was > 6.25 µM (inactive) in each case. The GI50 in the assay with UO-31 is 4.52 µM (inactive); with HCT-116, > 6.25 µM (inactive); in the assay on IGROV-1 it was > 6.25 µM (inactive); with OVCAR-4, > 6.25 µM (inactive); in the assay with PC-3, > 6.25 µM (inactive); in the assay on NCI-H522 it was > 6.25 µM (inactive). Moreover, the GI50 in the assay on HCT-15 is over 6.25 µM; in the assay with LOX IMVI it was > 6.25 µM (inactive).
For `Nc1ncnc2c1ccn2COC(CO)CO`, the GI50 with EKVX is > 100 µM (inactive); in the assay on MCF7, 92 µM (inactive); with MOLT-4 it was 51.9 µM (inactive); with RPMI-8226 it was 97.1 µM (inactive); with A549 it was > 100 µM (inactive); in the assay on HCC 2998 it was > 100 µM (inactive). The GI50 in the assay on SF-539, in the assay on T47D, in the assay with NCI/ADR-RES, with BT-549, in the assay with 786-0 and with Hs-578T was > 100 µM (inactive) in each case. The GI50 in the assay on UO-31 was > 100 µM (inactive); with HCT-116 it was > 100 µM (inactive); in the assay with IGROV-1 it was > 100 µM (inactive); in the assay on OVCAR-4, > 100 µM (inactive); with PC-3 it was > 100 µM (inactive); in the assay with NCI-H522, 54.7 µM (inactive). For the same molecule, the GI50 with HCT-15 is over 100 µM; in the assay on LOX IMVI, > 100 µM (inactive).
In the case of `N#Cc1c(O)c(/C=N/c2ccc(Cl)cc2)c(=O)n2c1[nH]c1ccccc12`, the GI50 in the assay with EKVX, in the assay with MCF7, in the assay with MOLT-4, with RPMI-8226, in the assay on A549 and with HCC 2998 was > 100 µM (inactive) in each case. For the same molecule, the GI50 in the assay on SF-539, in the assay on T47D, with NCI/ADR-RES, in the assay with BT-549, in the assay on 786-0 and with Hs-578T was > 100 µM (inactive) each time. In addition, the GI50 in the assay with UO-31, with HCT-116, in the assay on IGROV-1, with OVCAR-4, with PC-3 and with NCI-H522 was > 100 µM (inactive) each time. Further, the GI50 in the assay on HCT-15 is 36.5 µM; in the assay on LOX IMVI, > 100 µM (inactive).
As for `Oc1nc2cc(Cl)ccc2nc1/C(=N\Nc1ccccc1)C(O)c1ccc2c(c1)OCO2` (stereo not given), the GI50 in the assay with EKVX, in the assay with MCF7, with MOLT-4, in the assay on RPMI-8226, in the assay with A549 and in the assay with HCC 2998 was > 100 µM (inactive) in each case. Besides, the GI50 with SF-539 was > 100 µM (inactive); in the assay on T47D, 72.8 µM (inactive); with NCI/ADR-RES, > 100 µM (inactive); with BT-549, > 100 µM (inactive); in the assay on 786-0 it was > 100 µM (inactive); in the assay on Hs-578T, > 100 µM (inactive). Besides, the GI50 in the assay with UO-31, with HCT-116, with IGROV-1, in the assay on OVCAR-4, with PC-3 and in the assay on NCI-H522 was > 100 µM (inactive) in each case. Also, the GI50 is over 100 µM in the assay on HCT-15 and > 100 µM (inactive) in the assay with LOX IMVI.

The record behind these values is ChEMBL document CHEMBL1201862, “PubChem BioAssay data set” (2004).
